# Results reported in PMC8296573, “Synthesis and Biological Evaluation of Fingolimod Derivatives as Antibacterial Agents” (ACS Omega, 2021).
# Like-named read-outs stand apart in the source and are kept apart here.
# What was measured:
# S. aureus ATCC 25923 [1] = experiment: Antibacterial activity, pre-exposure (planktonic cells and biofilm formation); type: cell-based, Staphylococcus aureus; conditions: for MIC / inhibition at 5 µM / inhibition at 10 µM / inhibition at 15 µM / inhibition at 25 µM: Staphylococcus aureus, ATCC25923; for inhibition at 5 µM / inhibition at 10 µM / inhibition at 15 µM / inhibition at 25 µM / Average inhibition %, biofilms viability / Average inhibition %, planktonic cells viability: pre-exposure, ± SD
# Outline: (§1)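 Pre-exposure format: compound and bacterial culture co-incubated 18 h, 37 °C, aerobic, 220 rpm. Planktonic: turbidity (OD) plus resazurin viability, 20 μM final. Biofilm: PBS wash, 20 μM resazurin, then ethanol fixation and crystal violet staining, A595.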
# S. aureus ATCC 25923 [2] = experiment: Antibacterial activity, post-exposure on preformed 18-h-old biofilms; type: cell-based, Staphylococcus aureus; conditions: for Average inhibition %, biofilms viability / Average inhibition %, planktonic cells viability / inhibition at 25 µM / inhibition at 50 µM / inhibition at 100 µM / inhibition at 200 µM: ± SD; for inhibition at 25 µM / inhibition at 50 µM / inhibition at 100 µM / inhibition at 200 µM: Staphylococcus aureus; for inhibition at 25 µM: ATCC25923, 25 µM; for inhibition at 50 µM: ATCC25923, 50 µM; for inhibition at 100 µM: ATCC25923, 100 µM; for inhibition at 200 µM: ATCC25923, 200 µM
# Outline: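 Compounds were applied to preformed 18-h biofilms after medium change and left 24 h. Read-outs: planktonic OD plus resazurin fluorescence (20 μM), biofilm metabolic activity by resazurin 30 min at 37 °C, then biomass by crystal violet absorbance at 595 nm after ethanol fixation.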
# A. baumannii NCTC 13423 = experiment: Antibacterial activity, pre-exposure; type: cell-based, Acinetobacter baumannii; conditions: for Average inhibition %, biofilms viability / Average inhibition %, planktonic cells viability / inhibition at 10 µM / inhibition at 15 µM / inhibition at 25 µM / inhibition at 50 µM: A. baumannii NCTC 13423, pre-exposure, ± SD; for inhibition at 10 µM / inhibition at 15 µM / inhibition at 25 µM / inhibition at 50 µM / MIC: Acinetobacter baumannii, NCTC13423
# Outline: as §1
# P. aeruginosa ATCC 9027 = experiment: Antibacterial activity, pre-exposure; type: cell-based, Pseudomonas aeruginosa; conditions: for Average inhibition %, biofilms viability / Average inhibition %, planktonic cells viability / inhibition at 50 µM / inhibition at 100 µM / inhibition at 150 µM / inhibition at 200 µM: P. aeruginosa ATCC 9027, pre-exposure, ± SD; for inhibition at 50 µM / inhibition at 100 µM / inhibition at 150 µM / inhibition at 200 µM: ATCC9027
# Outline: as §1
# [3] = 10 µM, read-out: Average inhibition %, biofilms biomass
# [4] = 10 µM, read-out: Average inhibition %, planktonic cells turbidity
# [5] = 15 µM, read-out: Average inhibition %, biofilms biomass
# [6] = 15 µM, read-out: Average inhibition %, planktonic cells turbidity
# [7] = 25 µM, read-out: Average inhibition %, biofilms biomass
# [8] = 25 µM, read-out: Average inhibition %, planktonic cells turbidity
# [9] = read-out: Average inhibition %, biofilms biomass
# [10] = read-out: Average inhibition %, planktonic cells turbidity
compound,measurement,setting,value
"CCCCCCCCc1ccc(C(O)CC(N)(CO)CO)cc1 (stereo not drawn) [Compound 54, 3-Amino-3-(hydroxymethyl)-1-(4-octylphenyl)butane-1,4-diol]",MIC,"S. aureus ATCC 25923 [1]; lowest concentration with no visible growth (>90% inhibition of turbidity and viability of planktonic cells), 18 h, read-out: MIC S. aureus ATCC 25923",25 µM
same,inhibition at 5 µM,"S. aureus ATCC 25923 [1]; 5 µM, read-out: Average inhibition %, biofilms biomass",21.2 ± 18.4%
same,inhibition at 5 µM,"S. aureus ATCC 25923 [1]; 5 µM, read-out: Average inhibition %, planktonic cells turbidity",34.1 ± 32.1%
same,inhibition at 10 µM,S. aureus ATCC 25923 [1]; [3],23.7 ± 8.7%
same,inhibition at 10 µM,S. aureus ATCC 25923 [1]; [4],38.3 ± 27%
same,inhibition at 15 µM,S. aureus ATCC 25923 [1]; [5],39.3 ± 23.6%
same,inhibition at 15 µM,S. aureus ATCC 25923 [1]; [6],44.1 ± 23.3%
same,inhibition at 25 µM,S. aureus ATCC 25923 [1]; [7],93.7 ± 4.1%
same,inhibition at 25 µM,S. aureus ATCC 25923 [1]; [8],98.8 ± 1%
same,MIC,S. aureus ATCC 25923 [1]; read-out: MIC (S. aureus),25 µM
same,"Average inhibition %, biofilms viability",S. aureus ATCC 25923 [1]; 5 µM,21.2 ± 4.7%
same,"Average inhibition %, planktonic cells viability",S. aureus ATCC 25923 [1]; 5 µM,11.9 ± 20.6%
same,"Average inhibition %, biofilms viability",S. aureus ATCC 25923 [1]; 10 µM,28.3 ± 15.2%
same,"Average inhibition %, planktonic cells viability",S. aureus ATCC 25923 [1]; 10 µM,10.2 ± 17.7%
same,"Average inhibition %, biofilms viability",S. aureus ATCC 25923 [1]; 15 µM,28.6 ± 10.1%
same,"Average inhibition %, planktonic cells viability",S. aureus ATCC 25923 [1]; 15 µM,8.5 ± 14.7%
same,"Average inhibition %, biofilms viability",S. aureus ATCC 25923 [1]; 25 µM,99.5 ± 0.6%
same,"Average inhibition %, planktonic cells viability",S. aureus ATCC 25923 [1]; 25 µM,99.8 ± 0.1%
same,"Average inhibition %, biofilms viability",S. aureus ATCC 25923 [2]; 25 µM,11.2 ± 0.8%
same,"Average inhibition %, planktonic cells viability",S. aureus ATCC 25923 [2]; 25 µM,15 ± 26.1%
same,"Average inhibition %, biofilms viability",S. aureus ATCC 25923 [2]; 50 µM,23.6 ± 12.7%
same,"Average inhibition %, planktonic cells viability",S. aureus ATCC 25923 [2]; 50 µM,0 ± 0%
same,Inhibition of viability and total biomass of preformed biofilms,S. aureus ATCC 25923 [2]; 100 μM,at least 70%
same,"Average inhibition %, biofilms viability",S. aureus ATCC 25923 [2]; 100 µM,82.1 ± 27.3%
same,"Average inhibition %, planktonic cells viability",S. aureus ATCC 25923 [2]; 100 µM,97.9 ± 3.4%
same,"Average inhibition %, biofilms viability",S. aureus ATCC 25923 [2]; 200 µM,99.8 ± 0.2%
same,"Average inhibition %, planktonic cells viability",S. aureus ATCC 25923 [2]; 200 µM,100.1 ± 0.2%
same,inhibition at 25 µM,S. aureus ATCC 25923 [2]; [9],44 ± 14.9%
same,inhibition at 25 µM,S. aureus ATCC 25923 [2]; [10],5.1 ± 6.4%
same,inhibition at 50 µM,S. aureus ATCC 25923 [2]; [9],55.3 ± 3%
same,inhibition at 50 µM,S. aureus ATCC 25923 [2]; [10],17.4 ± 3.4%
same,inhibition at 100 µM,S. aureus ATCC 25923 [2]; [9],83.5 ± 19%
same,inhibition at 100 µM,S. aureus ATCC 25923 [2]; [10],82.6 ± 4.7%
same,inhibition at 200 µM,S. aureus ATCC 25923 [2]; [9],86.4 ± 3.9%
same,inhibition at 200 µM,S. aureus ATCC 25923 [2]; [10],83.6 ± 3.7%
same,"Average inhibition %, biofilms viability",A. baumannii NCTC 13423; 10 µM,0 ± 0%
same,"Average inhibition %, planktonic cells viability",A. baumannii NCTC 13423; 10 µM,4.7 ± 2.4%
same,"Average inhibition %, biofilms viability",A. baumannii NCTC 13423; 15 µM,1.2 ± 2.1%
same,"Average inhibition %, planktonic cells viability",A. baumannii NCTC 13423; 15 µM,6.4 ± 4.2%
same,"Average inhibition %, biofilms viability",A. baumannii NCTC 13423; 25 µM,6.1 ± 6.8%
same,"Average inhibition %, planktonic cells viability",A. baumannii NCTC 13423; 25 µM,3.3 ± 4.4%
same,"Average inhibition %, biofilms viability",A. baumannii NCTC 13423; 50 µM,100.2 ± 0.8%
same,"Average inhibition %, planktonic cells viability",A. baumannii NCTC 13423; 50 µM,99.4 ± 0.2%
same,inhibition at 10 µM,A. baumannii NCTC 13423; [3],2.3 ± 4.1%
same,inhibition at 10 µM,A. baumannii NCTC 13423; [4],0%
same,inhibition at 15 µM,A. baumannii NCTC 13423; [5],1.5 ± 1.3%
same,inhibition at 15 µM,A. baumannii NCTC 13423; [6],0%
same,inhibition at 25 µM,A. baumannii NCTC 13423; [7],6.1 ± 8.1%
same,inhibition at 25 µM,A. baumannii NCTC 13423; [8],0%
same,inhibition at 50 µM,"A. baumannii NCTC 13423; 50 µM, read-out: Average inhibition %, biofilms biomass",81.2 ± 8.8%
same,inhibition at 50 µM,"A. baumannii NCTC 13423; 50 µM, read-out: Average inhibition %, planktonic cells turbidity",99 ± 1%
same,MIC,"A. baumannii NCTC 13423; pre-exposure, Inactive = no activity up to 50 μM, > = some inhibition but no MIC reached, read-out: MIC A. baumannii NCTC 13423",50 µM
same,MIC,"A. baumannii NCTC 13423; supplementary molecular formula strings sheet, read-out: MIC (A. baumannii)",50 µM
same,"Average inhibition %, biofilms viability",P. aeruginosa ATCC 9027; 50 µM,22.2 ± 26.9%
same,"Average inhibition %, planktonic cells viability",P. aeruginosa ATCC 9027; 50 µM,74 ± 11.2%
same,"Average inhibition %, biofilms viability",P. aeruginosa ATCC 9027; 100 µM,98.9 ± 1.5%
same,"Average inhibition %, planktonic cells viability",P. aeruginosa ATCC 9027; 100 µM,99.6 ± 0%
same,"Average inhibition %, biofilms viability",P. aeruginosa ATCC 9027; 150 µM,97.5 ± 3.9%
same,"Average inhibition %, planktonic cells viability",P. aeruginosa ATCC 9027; 150 µM,99.2 ± 0.8%
same,"Average inhibition %, biofilms viability",P. aeruginosa ATCC 9027; 200 µM,99.7 ± 0.1%
same,"Average inhibition %, planktonic cells viability",P. aeruginosa ATCC 9027; 200 µM,99.7 ± 0.1%
same,MIC,"P. aeruginosa ATCC 9027; Pseudomonas aeruginosa, ATCC9027, pre-exposure, Inactive = no activity up to 200 μM, > = some inhibition but no MIC reached, read-out: MIC P. aeruginosa ATCC 9027",50 to 100 µM
same,MIC,"P. aeruginosa ATCC 9027; Pseudomonas aeruginosa, ATCC9027, supplementary molecular formula strings sheet, read-out: MIC (P. aeruginosa)",100 µM
same,inhibition at 50 µM,"P. aeruginosa ATCC 9027; Pseudomonas aeruginosa, 50 µM, read-out: Average inhibition %, biofilms biomass",46.4 ± 22%
same,inhibition at 50 µM,"P. aeruginosa ATCC 9027; Pseudomonas aeruginosa, 50 µM, read-out: Average inhibition %, planktonic cells turbidity",76.9 ± 11.6%
same,inhibition at 100 µM,"P. aeruginosa ATCC 9027; Pseudomonas aeruginosa, 100 µM, read-out: Average inhibition %, biofilms biomass",96.7 ± 1.1%
same,inhibition at 100 µM,"P. aeruginosa ATCC 9027; Pseudomonas aeruginosa, 100 µM, read-out: Average inhibition %, planktonic cells turbidity",98.2 ± 0.5%
same,inhibition at 150 µM,"P. aeruginosa ATCC 9027; Pseudomonas aeruginosa, 150 µM, read-out: Average inhibition %, biofilms biomass",90.9 ± 7.2%
same,inhibition at 150 µM,"P. aeruginosa ATCC 9027; Pseudomonas aeruginosa, 150 µM, read-out: Average inhibition %, planktonic cells turbidity",94.4 ± 1.4%
same,inhibition at 200 µM,"P. aeruginosa ATCC 9027; Pseudomonas aeruginosa, 200 µM, read-out: Average inhibition %, biofilms biomass",94.1 ± 1.7%
same,inhibition at 200 µM,"P. aeruginosa ATCC 9027; Pseudomonas aeruginosa, 200 µM, read-out: Average inhibition %, planktonic cells turbidity",94.1 ± 1.3%
same,MIC,"P. aeruginosa ATCC 9027; pre-exposure, Inactive = no activity up to 200 μM, > = some inhibition but no MIC reached, read-out: MIC P. aeruginosa ATCC 9027",100 µM
